Measured values as given in patent publication US20200164047A1, “THERAPY AND DIAGNOSIS OF DISEASE CHARACTERIZED BY ALTERATIONS IN THE DNA DAMAGE RESPONSE” (UNIVERSITÀ DEGLI STUDI DI MILANO, priority 2017, published 2020).

Assays:
[1] = system: yeast cells undergoing chronological aging; assay: Chronological lifespan (CLS) with UV: DDR, NER, viability; assay type: cell-based, S. cerevisiae; details: UV 40 J/m^2; rapamycin 2 ng/ml or metformin 80 mM
Experimental: Both drugs were supplemented at the initial overnight culture stage (Day 0), prior to cells entering stationary phase. In experiments including rapamycin-treated cultures, DMSO (0.04%) was used in the untreated cultures. For each chronological aging experiment, cells were set up in synthetic complete medium (SDC) and allowed to grow overnight at 28° C. to reach exponentially growing conditions the next day (day 1) until the end of kinetics (day 10/11 for DDR and NER analysis, day 21-28 for viability). At each examined day, small aliquots of cells were removed, exposed to 40 J/m^2 and further incubated in their exhausted medium. Samples were taken at untreated (prior to UV), 0 and 2 hours (for protein extraction) or 0, 6 and 24 hours (for genomic DNA extraction) after UV treatment.
PP2A targets: Gln3-myc, Npr1-myc, Nnk1-myc were all separated on NuPage precast 3-8% SDS gels. PonceauS staining was used as a loading control.
Cells were fixed in one volume of ice-cold 100% ethanol and incubated on ice for 5′. Genomic DNAs were then prepared following standard procedure. Equal amounts of DNA were loaded on 0.8% agarose gel, transferred by Southern blot onto nitrocellulose membrane (Amersham Protran 0.45μ) and cross-linked by baking 1 hour at 80° C.
Lifespan Viability Assays were Carried as Follows: Aliquots of Cells were Removed Throughout the CLS kinetics, serially diluted and spotted on YPD plates. The plates were then exposed to 40 J/m^2 (or 20 J/m^2 in some cases), incubated at 25° C. and scanned after 3 days. In FIGS. 33, 34 and 36 individual spot assay rows were cut out for space reasons, but the compared strains were always from the same plates.

cancer cells = assay: Lactate production and glucose consumption of cancer cells; assay type: cell-based; details: metformin treatment
Experimental: FIG. 20. […] (F, G) Quantification of oxygen consumption rate normalized by cell numbers of cells cultured in DMEM medium containing the indicated concentrations of glucose for 12 hours (F) or in DMEM medium containing with 2.5 mM glucose for the indicated time points (G).
Lactate production was measured using Lactate Assay Kit (Sigma Aldrich) according to manufacturer's instructions.

HeLa cells = assay: HeLa viable cell count with DNA damaging agents (trypan blue); assay type: cell-based; details: hydroxyurea 10 mM + gemcitabine 10 nM; high (10 mM) or low (2.5 mM) glucose
Experimental: After 24 hrs treatment, cells are allowed to grow for further 24 hrs (replacing the medium with normal medium), before being harvested and counted with trypan blue to measure viable cells.
(§1) HeLa cells were seeded in 6-well plates (200,00 cells/well), and left untreated, or treated with DNA damaging agents (hydroxyurea 10 mM+gemcitabine 10 nM), in high (10 mM) or low (2.5 mM) glucose, and treated with perphenazine (PPZ) as indicated. After 24 hrs treatment, cells are allowed to grow for further 24 hrs (replacing the medium with normal medium), before being harvested and counted with trypan blue to measure viable cells.
as §1, with “FTY-720 (FTY)” for “perphenazine (PPZ)”
as §1, with “Ceramide” for “perphenazine (PPZ)”
Cells were harvested by trypsinization, washed in PBS (pH 7.2), and then stained with trypan blue solution 04% v/v (Sigma Aldrich) added immediately prior to analysis. Cells ware then counted on a TC30 automated cell counter (Biorad).

CN(C)C(=N)NC(=N)N.Cl [metformin]
DDR, NER and lifespan during chronological aging [1]: improve DDR and promote longevity but not NER | glucose consumption and lactate production (cancer cells): dose and time-dependent increase in glucose consumption and lactate production | cooperation with DNA damaging agents (viable cells) (HeLa cells): potentiates the effect of DNA damaging agents in low glucose
